Assay [1] deals with Enterococcus faecium EFM.384, Daptomycin resistant mutant (14-A). In kind it is cell-based. Particulars: MHBc with 50 mg/L calcium, 18-20 hours at 37° C. The method, boiled down: (§1)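 MIC in μg/mL, taken as the lowest compound concentration producing no visible turbidity after 18-20 hours at 37° C with shaking at 200 rpm. Organisms were grown in calcium-supplemented (50 mg/L) Mueller Hinton broth at 5×10^5 bacteria per well.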

Assay [2] concerns Staphylococcus aureus SAU.278, Daptomycin resistant mutant (D10). In kind it is cell-based. The conditions noted are these: MHBc with 50 mg/L calcium, 18-20 hours at 37° C. Summed up: as §1
The test system of assay [3] is Enterococcus faecalis EFS.312, Daptomycin resistant mutant (EFA). Type of assay: cell-based. The conditions noted are these: MHBc with 50 mg/L calcium, 18-20 hours at 37° C. Summed up:
as §1

Assay [4] concerns Staphylococcus aureus SAU.399 (ATCC 43300), Methicillin and Oxacillin Resistant. Type of assay: cell-based. The method, boiled down: as §1
Assay [5] has as its system Enterococcus faecium EFM.14 (ATCC 6569). In kind it is cell-based. The method, boiled down: as §1
Assay [6] has as its system Staphylococcus aureus SAU.42 (ATCC 29213). In kind it is cell-based. Summed up: as §1
The test system of assay [7] is Enterococcus faecalis EFS.201 (ATCC 49452). In kind it is cell-based. Summed up: as §1
Assay [8] has as its system C. difficile spores (ATCC #43596). The assay is described as follows: Hamster C. difficile infection (CDAD) protection model. Type of assay: in vivo, Syrian golden hamsters. Particulars: oral 0.5 mg/kg once daily for 5 days (MET 70 mg/kg three times daily for 5 days). The method, then: Syrian golden hamsters were pretreated with 10 mg/kg clindamycin subcutaneously 24 hours before bacterial challenge. An inoculum of 20 C. difficile spores (ATCC #43596) in sterile saline was administered orally. Treatment was initiated 4 hours post-inoculation with dH2O, metronidazole (MET), vancomycin (VAN), or a compound of the present invention. Oral dosing regimens for VAN and compounds of Formula I were 0.5 mg/kg once daily for 5 days. MET was administered at 70 mg/kg three times daily for 5 days. CDAD was confirmed as the cause of death by observations at necropsy, including wet tail and/or macroscopic cecal alterations. The % protection provided by each therapy tested was calculated at 1 and 21 days post-dosing.

[9] abbreviates: MHBc with 50 mg/L calcium, 18-20 hours at 37° C.

Read-outs that look alike come from different tables or passages of the source.

For the compound `C[C@H](CC(=O)O)[C@@H]1NC(=O)[C@@H](CO)NC(=O)CNC(=O)[C@H](CC(=O)O)NC(=O)[C@@H](C)NC(=O)[C@H](CC(=O)O)NC(=O)[C@H](CCCN)NC(=O)CNC(=O)[C@@H](NC(=O)[C@H](CC(=O)O)NC(=O)[C@@H](CC(N)=O)NC(=O)[C@H](Cc2c[nH]c3ccccc23)NC(=O)c2ccc(-c3ccc(-c4ccccc4)cc3)cc2)[C@@H](C)OC(=O)[C@H](CC(=O)c2ccccc2N)NC1=O` [Compound 69], the “C. diff MIC90” value with Clostridium difficile is 2 µg/mL. Besides, the “Efm384 MIC” value in assay [1] stood at 4 µg/mL. The “Sa278 MIC” value in [2] was 0.125 µg/mL. Also, the “Efs312 MIC” value in [3] worked out at 32 µg/mL. In assay [4] (setting [9]), the “Sa399 MIC” value came out at 0.125 µg/mL. In addition, the “Efm14 MIC” value in assay [5] (setting [9]) was determined as 0.5 µg/mL. In addition, the “Sa42 MIC” value in assay [6] (setting [9]) was 0.125 µg/mL. Moreover, the “Efs201 MIC” value in assay [7] (setting [9]) is 0.5 µg/mL.

Take `C[C@H](CC(=O)O)[C@@H]1NC(=O)[C@@H](CO)NC(=O)CNC(=O)[C@H](CC(=O)O)NC(=O)[C@@H](C)NC(=O)[C@H](CC(=O)O)NC(=O)[C@H](CCCN)NC(=O)CNC(=O)[C@@H](NC(=O)[C@H](CC(=O)O)NC(=O)[C@@H](CC(N)=O)NC(=O)[C@H](Cc2c[nH]c3ccccc23)NC(=O)c2cc(-c3ccc(Cl)cc3)cs2)[C@@H](C)OC(=O)[C@H](CC(=O)c2ccccc2N)NC1=O` [Compound 70]: the “C. diff MIC90” value in the assay with Clostridium difficile was 16 µg/mL. For the same compound, the “Efm384 MIC” value in assay [1] was above 32 µg/mL. The “Sa278 MIC” value in [2] was above 32 µg/mL. The “Efs312 MIC” value in assay [3] is above 32 µg/mL. The “Sa399 MIC” value in [4] (ATCC 43300) was 8 µg/mL. Further, in assay [5] (ATCC 6569), the “Efm14 MIC” value is above 32 µg/mL. Also, the “Sa42 MIC” value in assay [6] (ATCC 29213) came to 8 µg/mL. Moreover, the “Efs201 MIC” value in assay [7] (ATCC 49452) was above 32 µg/mL.

With `C[C@H](CC(=O)O)[C@@H]1NC(=O)[C@@H](CO)NC(=O)CNC(=O)[C@H](CC(=O)O)NC(=O)[C@@H](C)NC(=O)[C@H](CC(=O)O)NC(=O)[C@H](CCCN)NC(=O)CNC(=O)[C@@H](NC(=O)[C@H](CC(=O)O)NC(=O)[C@@H](CC(N)=O)NC(=O)[C@H](Cc2c[nH]c3ccccc23)NC(=O)/C=C/c2ccc(-c3ccccc3)cc2)[C@@H](C)OC(=O)[C@H](CC(=O)c2ccccc2N)NC1=O` [Compound 71], the “C. diff MIC90” value with Clostridium difficile turned out to be 16 µg/mL. Further, the “Efm384 MIC” value in assay [1] was above 32 µg/mL. In addition, the “Sa278 MIC” value in assay [2] is 32 µg/mL. Also, in assay [3], the “Efs312 MIC” value was above 32 µg/mL. Besides, in assay [4] (setting [9]), the “Sa399 MIC” value was determined as 2 µg/mL. For the same compound, the “Efm14 MIC” value in assay [5] (setting [9]) worked out at 16 µg/mL. Further, the “Sa42 MIC” value in assay [6] (setting [9]) is 2 µg/mL. The “Efs201 MIC” value in assay [7] (setting [9]) turned out to be 8 µg/mL.

Consider `C[C@H](CC(=O)O)[C@@H]1NC(=O)[C@@H](CO)NC(=O)CNC(=O)[C@H](CC(=O)O)NC(=O)[C@@H](C)NC(=O)[C@H](CC(=O)O)NC(=O)[C@H](CCCN)NC(=O)CNC(=O)[C@@H](NC(=O)[C@H](CC(=O)O)NC(=O)[C@@H](CC(N)=O)NC(=O)[C@H](Cc2c[nH]c3ccccc23)NC(=O)C2(c3ccc(Cl)cc3)CCCCC2)[C@@H](C)OC(=O)[C@H](CC(=O)c2ccccc2N)NC1=O` [Compound 72], for which the “C. diff MIC90” value in the assay with Clostridium difficile turned out to be 32 µg/mL. Moreover, the “Efm384 MIC” value in [1] is above 32 µg/mL. In addition, in assay [2], the “Sa278 MIC” value is above 32 µg/mL. In addition, the “Efs312 MIC” value in assay [3] was above 32 µg/mL. Also, the “Sa399 MIC” value in assay [4] (ATCC 43300) is above 32 µg/mL. In assay [5] (ATCC 6569), the “Efm14 MIC” value was above 32 µg/mL. In addition, the “Sa42 MIC” value in assay [6] (ATCC 29213) was above 32 µg/mL. Also, the “Efs201 MIC” value in [7] (ATCC 49452) is above 32 µg/mL.

In the case of `CCCCCCCCCC(=O)N[C@@H](Cc1c[nH]c2ccccc12)C(=O)N[C@H](CC(N)=O)C(=O)N[C@@H](CC(=O)O)C(=O)N[C@@H]1C(=O)NCC(=O)N[C@@H](CCCN)C(=O)N[C@@H](CC(=O)O)C(=O)N[C@H](C)C(=O)N[C@@H](CC(=O)O)C(=O)NCC(=O)N[C@H](CO)C(=O)N[C@@H]([C@H](C)CC(=O)O)C(=O)N[C@@H](CC(=O)c2ccccc2N)C(=O)O[C@@H]1C` [Daptomycin, reference compound], the “C. diff MIC90” value with Clostridium difficile amounted to 2 µg/mL. Besides, the “Efm384 MIC” value in assay [1] was above 32 µg/mL. In addition, the “Sa278 MIC” value in assay [2] is 8 µg/mL. Further, the “Efs312 MIC” value in assay [3] was above 32 µg/mL. Besides, the “Sa399 MIC” value in [4] (ATCC 43300) came out at 0.5 µg/mL. Besides, the “Efm14 MIC” value in [5] (ATCC 6569) worked out at 4 µg/mL. Moreover, the “Sa42 MIC” value in assay [6] (ATCC 29213) worked out at 0.5 µg/mL. Moreover, in assay [7] (ATCC 49452), the “Efs201 MIC” value worked out at 2 µg/mL.

Regarding `Cc1ncc([N+](=O)[O-])n1CCO` [Metronidazole, 2-methyl-5-nitro-1H-imidazole-1-ethanol, reference compound], the “Mean % Protection 1 Day Post Dosing” value in assay [8] (1 day post-dosing) was determined as 100%. In addition, in assay [8] (21 days post-dosing), the “Mean % Protection 21 Days Post Dosing” value is 0%.

Values taken from patent US20150337013A1, “NOVEL ANTIBACTERIAL AGENTS FOR THE TREATMENT OF GRAM POSITIVE INFECTIONS” (priority 2008, published 2015).
